The experiment relates to FLAP (5-lipoxygenase activating protein). The experiment is described as follows: In vitro binding test: displacement of [3H]-7-chloro-3-(5-((3-fluoropyridin-2-yl)methoxy)-2-methylphenyl)-3,4-dihydroquinazolin-2(1H)-one from Sf9 microsome fractions. Set-up: species or system human and mouse. The note with it: Sf9 microsome fractions expressing FLAP; 100% = radioligand binding with 10 μM sodium 3-(3-(tert-butylsulfanyl)-1-(4-chlorobenzyl)-5-isopropyl-1H-indol-2-yl)-2,2-dimethylpropanoate, 0% = DMSO; test compound concentration not given. An outline of the steps:
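Sf9 microsomes expressing human or mouse FLAP (2 μg/mL) preincubated with compound 10 min at room temperature, then 120 nM tritiated quinazolinone ligand added for 60 min; buffer 100 mM Tris-HCl pH 7.5 with NaCl, EDTA, DTT, glycerol, Tween20. Bound ligand filtered and counted by scintillation; 10 μM indole propanoate defines 100% inhibition, DMSO 0%.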
For orientation: Loss of bound radioactivity is the signal in a displacement assay; it reports binding, not function.
On to `Cc1ccc(OCc2ncccc2F)cc1-n1c(=O)[nH]c2cc(C(F)(F)F)ccc2c1=O` [Example 357, 3-(5-((3-fluoropyridin-2-yl)methoxy)-2-methylphenyl)-7-(trifluoromethyl)quinazoline-2,4(1H,3H)-dione], for which the “inhibitory rate (%)” value amounted to 104%.

In the case of `O=c1[nH]c2cn(CC3CC3)nc2c(=O)n1-c1cc(OCc2ncccc2F)ccc1Br` [Example 358, 6-(2-bromo-5-((3-fluoropyridin-2-yl)methoxy)phenyl)-2-(cyclopropylmethyl)-2H-pyrazolo[4,3-d]pyrimidine-5,7(4H,6H)-dione], the “inhibitory rate (%)” value is 101%. Regarding `Cc1ccc(OCc2ncccc2F)cc1-n1c(=O)[nH]c2cccc(F)c2c1=O` [Example 359, 5-fluoro-3-(5-((3-fluoropyridin-2-yl)methoxy)-2-methylphenyl)quinazoline-2,4(1H,3H)-dione], the “inhibitory rate (%)” value came out at 97%. For the molecule `O=C1Nc2cn(CC3CC3)nc2CN1c1cc(OCc2ncccc2F)ccc1Br` [Example 360, 6-(2-bromo-5-((3-fluoropyridin-2-yl)methoxy)phenyl)-2-(cyclopropylmethyl)-2,4,6,7-tetrahydro-5H-pyrazolo[4,3-d]pyrimidin-5-one], the “inhibitory rate (%)” value amounted to 105%. `Cc1ccc(OCc2ncccc2F)cc1-n1c(=O)[nH]c2cc(NS(=O)(=O)C3CC3)ccc2c1=O` [Example 362, N-(3-(5-((3-fluoropyridin-2-yl)methoxy)-2-methylphenyl)-2,4-dioxo-1,2,3,4-tetrahydroquinazolin-7-yl)cyclopropanesulfonamide]: the “inhibitory rate (%)” value amounted to 110%.

In the case of `Cc1ccc(OCc2ncccc2F)cc1-n1c(=O)[nH]c2cc(C(=O)NC3CC3)ccc2c1=O` [Example 363, N-cyclopropyl-3-(5-((3-fluoropyridin-2-yl)methoxy)-2-methylphenyl)-2,4-dioxo-1,2,3,4-tetrahydroquinazoline-7-carboxamide], the “inhibitory rate (%)” value is reported as 97%. For `O=c1[nH]c2cccc(Cl)c2c(=O)n1-c1cc(OCc2ncccc2F)c(F)cc1Cl` [Example 364, 5-chloro-3-(2-chloro-4-fluoro-5-((3-fluoropyridin-2-yl)methoxy)phenyl)quinazoline-2,4(1H,3H)-dione] the value was 108%; for `COc1cccc2[nH]c(=O)n(-c3cc(OCc4ncccc4F)ccc3C)c(=O)c12` [Example 365, 3-(5-((3-fluoropyridin-2-yl)methoxy)-2-methylphenyl)-5-methoxyquinazoline-2,4(1H,3H)-dione], 94%. For `COCCOc1cccc2[nH]c(=O)n(-c3cc(OCc4ncccc4F)ccc3C)c(=O)c12` [Example 366, 3-(5-((3-fluoropyridin-2-yl)methoxy)-2-methylphenyl)-5-(2-methoxyethoxy)quinazoline-2,4(1H,3H)-dione] the value was 95%. As for `Cc1ccc(OCc2ncccc2F)cc1-n1c(=O)[nH]c2cccc(OCC3CC3)c2c1=O` [Example 367, 5-(cyclopropylmethoxy)-3-(5-((3-fluoropyridin-2-yl)methoxy)-2-methylphenyl)quinazoline-2,4(1H,3H)-dione], the “inhibitory rate (%)” value came out at 100%. For `O=c1[nH]c2ccc(Br)c(Cl)c2c(=O)n1-c1cc(OCc2ncccc2F)ccc1Cl` [Example 368, 6-bromo-5-chloro-3-(2-chloro-5-((3-fluoropyridin-2-yl)methoxy)phenyl)quinazoline-2,4(1H,3H)-dione] the value was 108%. The value for `Cc1ccc(OCc2ncccc2F)cc1-n1c(=O)[nH]c2ccncc2c1=O` [Example 369, 3-(5-((3-fluoropyridin-2-yl)methoxy)-2-methylphenyl)pyrido[4,3-d]pyrimidine-2,4(1H,3H)-dione] was 106%. For `Cc1ccc(OCc2ncccc2F)cc1-n1c(=O)[nH]c2cccc(C(F)(F)F)c2c1=O` [Example 370, 3-(5-((3-fluoropyridin-2-yl)methoxy)-2-methylphenyl)-5-(trifluoromethyl)quinazoline-2,4(1H,3H)-dione] the value was 97%; for `Cc1ccc(OCc2ncccc2Br)cc1-n1c(=O)[nH]c2ccccc2c1=O` [Example 371, 3-(5-((3-bromopyridin-2-yl)methoxy)-2-methylphenyl)quinazoline-2,4(1H,3H)-dione], 96%.

`O=c1[nH]c2ccccc2c(=O)n1-c1cc2c(cc1Cl)CCC(c1ncccc1F)O2` (stereo not drawn) [Example 372, 3-(6-chloro-2-(3-fluoropyridin-2-yl)-3,4-dihydro-2H-chromen-7-yl)quinazoline-2,4(1H,3H)-dione]: the “inhibitory rate (%)” value was determined as 95%.

(Values after US20150299188A1, “HETEROCYCLIC COMPOUND” (priority 2012, published 2015).)
